Laboratory results as given in patent publication EP0350946A2 (priority 1988, dated 1990).
Like-named read-outs stand apart in the source and are kept apart here.

What was measured:
[1] = test system: Plasmopara viticola; assay: Curative effect on downy mildew of grapes; type: in vivo, grapes (var: Bailey-A); conditions: sprayed the day after inoculation, observed after 8 days, percent disease control
Description: (§1) Typical test data indicating the excellent fungicidal activity of the amide compounds (I) are shown below. The assessment data are converted to percent disease control. 100 % means no infection; 0 % means that the plant are totally infected compared with the control plant.
A plastic pot was filled with sandy soil, and seeds of grapes (var: Bailey-A) were sowed therein, followed by cultivation in a greenhouse for 50 days. A spore suspension of Plasmopara viticola was inoculated by spreading over the seedlings at the 6 to 7 leaf-stage of the test plants, which were then allowed to stand at 20°C overnight under a humid condition. The test compound formulated in a wettable powder according to Formulation Example 1 and diluted with water to a prescribed concentration was thoroughly sprayed over the test plants, which were further grown for 8 days under illumination and observed.

[2] = test system: Pseudoperonospora cubensis; assay: Curative effect on downy mildew of cucumber; type: in vivo, cucumber (var: Sagamihanjiro); conditions: sprayed the day after inoculation, observed after 8 days, percent disease control
Description: as §1
A plastic pot was filled with sandy soil, and seeds of cucumber (var: Sagamihanjiro) were sowed therein, followed by cultivation in a greenhouse for 14 days. A spore suspension of Pseudoperonospora cubensis was inoculated by spreading over the seedlings of the test plants, which were then allowed to stand at 20°C overnight under a humid condition. The test compound formulated in a wettable powder according to Formulation Example 1 and diluted with water to a prescribed concentration was thoroughly sprayed over the test plants, which were further grown for 8 days under illumination and observed.

[3] = test system: Phytophthora infestans; type: in vivo, tomato (var: Ponte Rosa); conditions: sprayed the day after inoculation, observed after 5 days, percent disease control

Structure (SMILES)	Curative effect Grape ([1]; 100 ppm) [%]	Curative effect Grape ([1]; 200 ppm) [%]	Curative effect Cucumber ([2]; 100 ppm) [%]	Curative effect Cucumber ([2]; 200 ppm) [%]	Curative effect Tomato ([3]; 100 ppm) [%]	Curative effect Tomato ([3]; 200 ppm) [%]
CCOC(C#N)NC(=O)c1sc(C)nc1C (centres unmarked) [Compound 2, 2-ethoxy-2-(2,4-dimethylthiazole-5-carboxamino)acetonitrile]	100	100	95	100	95	100
C#CCCOC(C#N)NC(=O)c1sc(C)nc1C (centres unmarked) [Compound 4, 2-(butynyl-3-oxy)-2-(2,4-dimethylthiazole-5-carboxamino)acetonitrile]	–	100	–	100	90	100
CCOC(C#N)NC(=O)c1sc(C)nc1CC (centres unmarked) [Compound 6, 2-ethoxy-2-(4-ethyl-2-methylthiazole-5-carboxamino)acetonitrile]	100	100	–	100	100	100
CCCOC(C#N)NC(=O)c1sc(C)nc1CC (centres unmarked) [Compound 7, 2-n-propoxy-2-(4-ethyl-2-methylthiazole-5-carboxamino)acetonitrile]	90	100	90	100	100	100
C#CCCOC(C#N)NC(=O)c1sc(C)nc1CC (centres unmarked) [Compound 10, 2-(butynyl-3-oxy)-2-(4-ethyl-2-methylthiazole-5-carboxamino)acetonitrile]	90	100	95	100	95	100
CCc1nc(C)sc1C(=O)NC(C#N)OCCC#N (centres unmarked) [Compound 11, 2-(2-cyanoethoxy)-2-(4-ethyl-2-methylthiazole-5-carboxamino)acetonitrile]	100	100	90	100	100	100
CCSC(C#N)NC(=O)c1sc(C)nc1CC (centres unmarked) [Compound 12, 2-ethylthio-2-(4-ethyl-2-methylthiazole-5-carboxamino)acetonitrile]	90	100	90	100	95	100
CCCc1nc(C)sc1C(=O)NC(C#N)OCC (centres unmarked) [Compound 13, 2-ethoxy-2-(4-n-propyl-2-methylthiazole-5-carboxamino)acetonitrile]	–	90	90	95	90	95
CCOC(C#N)NC(=O)c1sc(C)nc1C(C)C (centres unmarked) [Compound 14, 2-ethoxy-2-(4-isopropyl-2-methylthiazole-5-carboxamino)acetonitrile]	90	100	100	100	100	100
